Several values for one entry are separate records, joined by “and”; a condition that tells them apart may be missing. Identical values can stand only once.
How the values were obtained:
Format in all cases: in vivo, C57BL/6 mice
[1] = test system: liver (LV); assay: Whole organ transcriptome (GeneChip microarray) of liver 6 h after adjuvant administration: sDEGs, hierarchical clustering; settings: hierarchical clustering, liver; note: key: G1 (interferon signaling); G2 (metabolism of lipids and lipoproteins); G3 (response to stress); G4 (response to wounding); G5 (phosphate-containing compound metabolic process); G6 (phagosome)
[2] = test system: inguinal lymph nodes (LN); assay: Whole organ transcriptome (GeneChip microarray) of draining inguinal lymph nodes 6 h after adjuvant administration: sDEGs, gene modules, hierarchical clustering; for adjuvant group (cluster) in LN: key: G1 (interferon signaling); G2 (metabolism of lipids and lipoproteins); G3 (response to stress); G4 (response to wounding); G5 (phosphate-containing compound metabolic process); G6 (phagosome)
[3] = test system: spleen (SP); assay: Whole organ transcriptome (GeneChip microarray) of spleen 6 h after adjuvant administration: sDEGs, hierarchical clustering; settings: hierarchical clustering; note: key: G1 (interferon signaling); G2 (metabolism of lipids and lipoproteins); G3 (response to stress); G4 (response to wounding); G5 (phosphate-containing compound metabolic process); G6 (phagosome)
[4] = test system: preferentially upregulated genes in LV, SP, LN; assay: Z-score-based differential gene expression analysis (adjuvant group- or adjuvant-associated genes, 40 module mapping, TargetMine annotation); design: key to z sum, 1458589_at ---: sum of the per-gene fold-change z-scores of the triplicate samples; settings: ID, LN
Procedure, shortened: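 Per-sample fold-change values converted to gene-wise z-scores within each organ's data set, then triplicate z-scores summed per adjuvant. Genes with summed score >3 taken as preferentially expressed; gene groups defined by combined per-adjuvant z-score thresholds (z>1 to z>3) specific to each organ.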

`Nc1nc2c(ncn2[C@@H]2O[C@@H]3COP(=O)(O)O[C@H]4[C@@H](O)[C@H](n5cnc6c(=O)[nH]c(N)nc65)O[C@@H]4COP(=O)(O)O[C@H]3[C@H]2O)c(=O)[nH]1` [cdiGMP, Cyclic diguanylate monophosphate] was tested, and the “adjuvant group (cluster) in LV” value [1] was “G1”, the “module M40^LN (immune system process; dendritic cells, macrophages, neutrophils, stromal cells)” value ([2]; LN, 6 h) was “strongly induced” and the “adjuvant group (cluster) in LN” value ([2]; hierarchical clustering, lymph node) was “G1”. The “adjuvant group (cluster) in SP” value [3] was “G1”, the “z sum, 1428027_at LOC100653389” value ([4]; Modules 26) was 3.943 and the “z sum, 1419721_at Niacr1” value ([4]; Modules 27) was 3.925. For the same compound, the “z sum, 1418424_at Tnfaip6” value ([4]; Modules 29) was 3.961, the “z sum, 1419534_at Olr1” value ([4]; Modules 29) was 3.953 and the “z sum, 1421457_a_at Samsn1” value ([4]; Modules 29) was 3.927. The “z sum, 1422305_at Ifnb1” value ([4]; Modules 29) was 3.959, the “z sum, 1423028_at Ifna2” value ([4]; Modules 29) was 3.966 and the “z sum, 1425837_a_at Ccrn4l” value ([4]; Modules 29) was 3.961. For the same compound, the “z sum, 1436387_at C330006P03Rik///Homer1” value ([4]; Modules 29) was 3.967, the “z sum, 1439349_at Sbno2” value ([4]; Modules 29) was 3.94 and the “z sum, 1444010_at Eif4e” value ([4]; Modules 29) was 3.936. For the same compound, the “z sum, 1448325_at Ppp1r15a” value ([4]; Modules 29) was 3.957, the “z sum, 1449311_at Bach1” value ([4]; Modules 29) was 3.924 and the “z sum, 1450297_at Il6” value ([4]; Modules 29) was 3.956. For the same compound, the “z sum, 1455197_at Rnd1” value ([4]; Modules 29) was 3.976, the “z sum, 1455899_x_at Socs3” value ([4]; Modules 29) was 3.93 and the “z sum, 1417252_at Ptgs2” value ([4]; Modules 34) was 3.953. The “z sum, 1417263_at Ptgs2” value ([4]; Modules 34) was 3.945, the “z sum, 1419132_at Tfr2” value ([4]; Modules 34) was 3.95 and the “z sum, 1421473_at Il1a” value ([4]; Modules 34) was 3.96. The “z sum, 1439981_at Tespa1” value ([4]; Modules 35) was 3.95, the “z sum, 1441843_s_at 5230400M03Rik” value ([4]; Modules 35) was 3.967 and the “z sum, 1442556_at ---” value ([4]; Modules 35) was 3.981. The “z sum, 1443414_at C78513” value ([4]; Modules 35) was 3.922, the “z sum, 1444598_at ---” value ([4]; Modules 35) was 3.93 and the “z sum, 1445534_at ---” value ([4]; Modules 35) was 3.938. For the same compound, the “z sum, 1446245_at ---” value ([4]; Modules 35) was 3.919, the “z sum, 1457944_at ---” value ([4]; Modules 35) was 3.94 and the “z sum, 1458376_at B930025B16Rik” value ([4]; Modules 35) was 3.963. The “z sum, 1459144_at ---” value ([4]; Modules 35) was 3.966, the “z sum, 1425687_at Cflar” value ([4]; Modules 36) was 3.968 and the “z sum, 1427736_a_at Ccrl2” value ([4]; Modules 36) was 3.958. The “z sum, 1449169_at Has2” value ([4]; Modules 36) was 3.922, the “z sum, 1453636_at Pcgf5” value ([4]; Modules 36) was 3.972 and the “z sum, 1457888_at ---” value ([4]; Modules 36) was 3.925. For the same compound, the “z sum, 1419508_at Ripk1” value ([4]; Modules 37) was 3.938, the “z sum, 1421578_at Ccl4” value ([4]; Modules 37) was 3.99 and the “z sum, 1421679_a_at Cdkn1a” value ([4]; Modules 37) was 3.98. For the same compound, the “z sum, 1424638_at Cdkn1a” value ([4]; Modules 37) was 3.93, the “z sum, 1433508_at Klf6” value ([4]; Modules 37) was 3.947 and the “z sum, 1434350_at Csrnp1” value ([4]; Modules 37) was 3.966. For the same compound, the “z sum, 1439680_at Tnfsf10” value ([4]; Modules 37) was 3.927, the “z sum, 1448724_at Cish” value ([4]; Modules 37) was 3.94 and the “z sum, 1451340_at Arid5a” value ([4]; Modules 37) was 3.953. The “z sum, 1453851_a_at Gadd45g” value ([4]; Modules 37) was 3.961, the “z sum, 1457404_at Nfkbiz” value ([4]; Modules 37) was 3.989 and the “z sum, 1458589_at ---” value ([4]; Modules 37) was 3.945. The “z sum, 1422054_a_at 5kil” value ([4]; Modules 40) was 3.92, the “z sum, 1428735_at Cd69” value ([4]; Modules 40) was 3.941 and the “z-score of fold change, 1428027_at LOC100653389” value ([4]; samples x1-x3, Modules 26) was 1.302 and 1.534 and 1.106. The “z-score of fold change, 1419721_at Niacr1” value ([4]; samples x1-x3, Modules 27) was 1.493 and 1.403 and 1.03, the “z-score of fold change, 1418424_at Tnfaip6” value ([4]; samples x1-x3, Modules 29) was 1.141 and 1.631 and 1.189 and the “z-score of fold change, 1419534_at Olr1” value ([4]; samples x1-x3, Modules 29) was 1.484 and 1.094 and 1.375. For the same compound, the “z-score of fold change, 1421457_a_at Samsn1” value ([4]; samples x1-x3, Modules 29) was 1.437 and 1.192 and 1.298 and the “z-score of fold change, 1422305_at Ifnb1” value ([4]; samples x1-x3, Modules 29) was 0.997 and 1.431 and 1.532.

From US20230021483A1, “[…] […] METHOD AND CLASSIFICATION OF PHARMACEUTICAL COMPONENTS BY USING TRANSCRIPTOMES” (National Institutes of Biomedical Innovation, Health and …, priority 2016, published 2023)
